Test results: patent US20260034123A1 (Cedilla Therapeutics, Inc., priority 2022, published 2026)

Key:
CDK2/Cyclin E1 [1] = target: T1, CDK2/Cyclin E1 (Homo sapiens, UniProt P24941); test: Caliper LabChip EZ Reader mobility shift assay; format: biochemical; details: 2.5 nM CDK2/Cyclin E1(14-475), 100 μM ATP, 30 min preincubation; read-out: Caliper Assay (CDK2/CCNE1): IC50
Protocol: Inhibition of CDK2/Cyclin E1 activity in the presence of compounds of the present disclosure was evaluated using a Caliper LabChip® EZ Reader mobility shift assay. In the assay, activated CDK2/Cyclin E1 catalyzes the phosphorylation of a fluorescently tagged peptide 5-FAM-QSPKKG-CONH2 (PerkinElmer, FL Peptide 18) which induces a difference in capillary electrophoresis mobility. The peptide substrate and product were measured, and the conversion ratio was used to determine the inhibition (as % activity and IC50 values) of CDK2/Cyclin E1. Reactions contained 50 mM HEPES pH 7.5, 10 mM MgCl2, 1 mM EDTA, 2 mM DTT, 0.01% Brij35, 0.5 mg/mL BSA, 0.1% DMSO, 2.5 nM CDK2/Cyclin E1(14-475), 100 μM ATP, and 1.5 μM fluorescent peptide substrate.
Dose titrations of inhibitors in 100% DMSO were combined with 3.25 nM CDK2/Cyclin E1(14-475) and 130 μM of ATP in reaction buffer. The mixtures were incubated for 30 minutes before the addition of fluorescent peptide substrate to initiate the kinase reaction. The final conditions were 2.5 nM CDK2/Cyclin E1(14-475), 100 μM ATP, and 1.5 μM fluorescent peptide. The reactions were stopped after 100 minutes with the addition of EDTA (6 mM final EDTA concentration). The stopped reactions were analyzed on a Caliper LabChip® EZ Reader 11. The conversion ratios were normalized to yield % activity, plotted against compound concentration, and fit to a four-parameter equation to determine the IC50 for each compound.

Kuramochi cells RB-WT = test: IncuCyte Kuramochi cell proliferation assay, RB-WT; format: cell-based; details: 72 hours, cell count
How it was run: (§1)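 GI50 was derived by curve-fitting DMSO-normalized fold change in nuclear count between 0 and 72 h. Counts came from images of Kuramochi cells carrying mApple-H2B. Compounds were dosed over 10 points at 1/2-log spacing from a 20 µM top concentration.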

Kuramochi cells RB-KO = test: IncuCyte Kuramochi cell proliferation assay, RB-KO; format: cell-based; details: 72 hours, cell count, batch mean
How it was run: as §1

CDK2/Cyclin E1 [2] = target: T1, CDK2/Cyclin E1; test: ADP-Glo Luminescent Kinase Assay (CDK2/E1-37C); format: biochemical; details: 0.18 nM CDK2/Cyclin E1, 100 μM ATP, Histone H1, 37° C.; read-out: ADPGLO (CDK2/E1-37C): IC50
How it was run: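 IC50 fitted by four-parameter equation from ADP-Glo luminescence converted to % activity. Compounds were preincubated 60 min at 37 °C with enzyme, then kinase reaction ran 90 min at 37 °C with 0.18 nM enzyme, 100 μM ATP, Histone H1 ([…]), pH 7.5 HEPES, Mg2+, DTT.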

| IC50 (CDK2/Cyclin E1 [1]) | IC50 (CDK2/Cyclin E1 [2]) | SMILES | IC50 (Kuramochi cells RB-WT) | IC50 (Kuramochi cells RB-KO) |
| --- | --- | --- | --- | --- |
| 1 to 10 µM | – | CC1(C)C[C@@H]1C(=O)N1CC2(CN(C(=O)c3cncs3)C[C@@H]2COCc2cccc(C3CCOCC3)n2)C1 [Compound I-64, ((R)-2-((S)-2,2-dimethylcyclopropane-1-carbonyl)-8-(((6-(tetrahydro-2H-pyran-4-yl)pyridin-2-yl)methoxy)methyl)-2,6-diazaspiro[3.4]octan-6-yl)(thiazol-5-yl) methanone] | > 10 µM | – |
| 0.01 to 0.1 µM | – | CC1(C)C[C@@H]1C(=O)N1CC2(CN(C(=O)c3cncs3)C[C@H]2COCc2cccc(C3CCC(OC(F)(F)F)CC3)n2)C1 (stereo partly drawn) [Compound I-24, ((S)-2-((S)-2,2-dimethylcyclopropane-1-carbonyl)-8-(((6-(4-(trifluoromethoxy)cyclohexyl)pyridin-2-yl)methoxy)methyl)-2,6-diazaspiro[3.4]octan-6-yl)(thiazol-5-yl) methanone] | 5 to 10 µM | – |
| 1 to 10 µM | – | CC(OC[C@@H]1CN(C(=O)c2cncs2)CC12CN(C(=O)[C@H]1CC1(C)C)C2)c1cccc(C2CCOCC2)n1 (stereo partly drawn) [Compound I-14, ((S)-2-((S)-2,2-dimethylcyclopropane-1-carbonyl)-8-((1-(6-(tetrahydro-2H-pyran-4-yl)pyridin-2-yl)ethoxy)methyl)-2,6-diazaspiro[3.4]octan-6-yl)(thiazol-5-yl)methanone] | > 10 µM | – |
| 0.01 to 0.1 µM | – | CC1(C)C[C@@H]1C(=O)N1CC2(CN(C(=O)c3cncs3)C[C@H]2COCc2cccc(-c3ccc(C(F)(F)F)cc3F)n2)C1 [Compound I-33, ((S)-2-((S)-2,2-dimethylcyclopropane-1-carbonyl)-8-(((6-(2-fluoro-4-(trifluoromethyl)phenyl)pyridin-2-yl)methoxy)methyl)-2,6-diazaspiro[3.4]octan-6-yl)(thiazol-5-yl) methanone] | 5 to 10 µM | – |
| > 10 µM | – | CC1(C)C[C@@H]1C(=O)N1CC2(CN(C(=O)c3cncs3)C[C@H]2COCc2ccnn2C2CCCC2)C1 [Compound I-37, ((S)-8-(((1-cyclopentyl-1H-pyrazol-5-yl)methoxy)methyl)-2-((S)-2,2-dimethylcyclopropanecarbonyl)-2,6-diazaspiro[3.4]octan-6-yl)(thiazol-5-yl)methanone] | > 10 µM | – |
| > 10 µM | – | CC(C)(C)CN1CC2(C1)CN(C(=O)c1cnccn1)C[C@H]2COCc1cccc(-c2ccc(C(F)(F)F)cc2)n1 [Compound I-17, (S)-(2-neopentyl-8-(((6-(4-(trifluoromethyl)phenyl)pyridin-2-yl)methoxy)methyl)-2,6-diazaspiro[3.4]octan-6-yl)(pyrazin-2-yl)methanone] | > 10 µM | – |
| > 10 µM | – | CC(C)(C)CN1CC2(C1)CN(C(=O)c1cncs1)C[C@H]2COCc1cccc(-c2ccc(C(F)(F)F)cc2)n1 [Compound I-16, (S)-(2-neopentyl-8-(((6-(4-(trifluoromethyl)phenyl)pyridin-2-yl)methoxy)methyl)-2,6-diazaspiro[3.4]octan-6-yl)(thiazol-5-yl)methanone] | 5 to 10 µM | – |
| > 10 µM | – | CC1(C)C[C@@H]1C(=O)N1CC2(CN(Cc3cnccn3)C[C@H]2COCc2cccc(-c3ccc(C(F)(F)F)cc3)n2)C1 [Compound I-19, ((S)-2,2-dimethylcyclopropyl)((S)-6-(pyrazin-2-ylmethyl)-8-(((6-(4-(trifluoromethyl)phenyl)pyridin-2-yl)methoxy)methyl)-2,6-diazaspiro[3.4]octan-2-yl) methanone] | > 10 µM | – |
| 1 to 10 µM | – | CC1(C)C[C@@H]1C(=O)N1CC2(CN(C(=O)c3cncs3)C[C@H]2COc2cncc3c(C4CCOCC4)cccc23)C1 [Compound I-23, ((S)-2-((S)-2,2-dimethylcyclopropanecarbonyl)-8-(((8-(tetrahydro-2H-pyran-4-yl)isoquinolin-4-yl)oxy)methyl)-2,6-diazaspiro[3.4]octan-6-yl)(thiazol-5-yl)methanone] | > 10 µM | – |
| 1 to 10 µM | – | CC1(C)C[C@@H]1C(=O)N1CC2(CN(C(=O)c3cncs3)CC2COCc2cccc(C3=CCOCC3)n2)C1 (some centres unmarked) [Compound I-48] | > 10 µM | – |
| – | ≤ 0.5 µM | O=C(O)c1c(COC[C@@H]2CN(C(=O)c3cnn(Cc4ccc(F)cc4)c3)CC23CN(C(=O)C2(C(F)(F)F)CCC2)C3)cccc1C1CCC(C(F)(F)F)CC1 (stereo partly drawn) [Compound I-95, (S)-2-(((6-(1-(4-fluorobenzyl)-1H-pyrazole-4-carbonyl)-2-(1-(trifluoromethyl)cyclobutanecarbonyl)-2,6-diazaspiro[3.4]octan-8-yl)methoxy)methyl)-6-(4-(trifluoromethyl)cyclohexyl)benzoic acid] | 0.5 to 5 µM | > 10 µM |
| – | ≤ 0.5 µM | CC1(C)C[C@@H]1C(=O)N1CC2(CN(C(=O)c3cnn(Cc4ccc(F)cc4)c3)CC2COc2cccc(C3CCC(F)(F)CC3)c2C(=O)O)C1 (stereo partly drawn) [Compound I-128, 2-(4,4-difluorocyclohexyl)-6-((2-((S)-2,2-dimethylcyclopropane-1-carbonyl)-6-(1-(4-fluorobenzyl)-1H-pyrazole-4-carbonyl)-2,6-diazaspiro[3.4]octan-8-yl)methoxy)benzoic acid] | > 10 µM | > 10 µM |
| – | 0.5 to 5 µM | CC1(C(=O)N2CC3(CN(C(=O)c4cnn(Cc5ccc(F)cc5)c4)C[C@H]3COCc3cccc(C4CCC(C(F)(F)F)CC4)c3C(=O)O)C2)CCO1 (stereo partly drawn) [Compound I-93, 2-((((8S)-6-(1-(4-fluorobenzyl)-1H-pyrazole-4-carbonyl)-2-(2-methyloxetane-2-carbonyl)-2,6-diazaspiro[3.4]octan-8-yl)methoxy)methyl)-6-(4-(trifluoromethyl)cyclohexyl)benzoic acid] | > 10 µM | > 10 µM |
| – | ≤ 0.5 µM | CC1(C)C[C@@H]1C(=O)N1CC2(CN(C(=O)c3cnn(Cc4ccc(F)cc4)c3)C[C@H]2COCc2c(F)ccc(C3CCC(F)(F)CC3)c2C(=O)O)C1 [Compound I-119, 6-(4,4-difluorocyclohexyl)-2-(((2-((S)-2,2-dimethylcyclopropane-1-carbonyl)-6-(1-(4-fluorobenzyl)-1H-pyrazole-4-carbonyl)-2,6-diazaspiro[3.4]octan-8-yl)methoxy)methyl)-3-fluorobenzoic acid] | 0.5 to 5 µM | > 10 µM |

The next lines start with the compound.

| SMILES | IC50 (CDK2/Cyclin E1 [1]) | IC50 (CDK2/Cyclin E1 [2]) | IC50 (Kuramochi cells RB-WT) | IC50 (Kuramochi cells RB-KO) |
| --- | --- | --- | --- | --- |
| CC(C)(C(=O)N1CC2(CN(C(=O)c3cnn(Cc4ccc(F)cc4)c3)C[C@H]2COCc2c(C(F)(F)F)ccc(C3CCC(F)(F)CC3)c2C(=O)O)C1)C(F)(F)F [I′-20] | – | ≤ 0.5 µM | 5 to 10 µM | > 10 µM |
| O=C(O)c1c(O)cc(COCC2CN(C(=O)c3cnn(Cc4ccc(C(F)(F)F)cc4)c3)CC23CN(C(=O)C2(C(F)(F)F)CC2)C3)cc1C1CCC(F)(F)CC1 (centres unmarked) [I′-82] | – | 5 to 10 µM | > 10 µM | > 10 µM |
| O=C(O)c1ccccc1Cn1cc(C(=O)N2CC(COCc3cccc(C4CCC(C(F)(F)F)CC4)c3OC(F)F)C3(C2)CN(C(=O)C2(C(F)(F)F)CC2)C3)cn1 (centres unmarked) [I′-74, 2-((4-(8-(((2-(difluoromethoxy)-3-(4-(trifluoromethyl)cyclohexyl)benzyl)oxy)methyl)-2-(1-(trifluoromethyl)cyclopropane-1-carbonyl)-2,6-diazaspiro[3.4]octane-6-carbonyl)-1H-pyrazol-1-yl)methyl)benzoic acid] | – | ≤ 0.5 µM | > 10 µM | > 10 µM |
| NC(=O)c1c(COC[C@@H]2CN(c3cc(C(=O)O)cc4ncsc34)CC23CN(C(=O)C2(C(F)(F)F)CC2)C3)cccc1C1CCC(F)(F)CC1 [I′-59] | – | > 10 µM | 0.5 to 5 µM | > 10 µM |
| O=C(O)c1c(COCC2CN(c3ncnc4ncsc34)CC23CN(C(=O)C2(C(F)(F)F)CC2)C3)cccc1C1CCC(F)(F)CC1 (centres unmarked) [I′-64, 2-(4,4-difluorocyclohexyl)-6-(((6-(thiazolo[4,5-d]pyrimidin-7-yl)-2-(1-(trifluoromethyl)cyclopropane-1-carbonyl)-2,6-diazaspiro[3.4]octan-8-yl)methoxy)methyl)benzoic acid] | – | ≤ 0.5 µM | 0.5 to 5 µM | 0.5 to 5 µM |
| O=C(O)c1c(CCC2CN(C(=O)c3cnn(Cc4ccc(F)cc4)c3)CC23CN(C(=O)C2(C(F)(F)F)CC2)C3)cccc1C1CCC(F)(F)CC1 (centres unmarked) [I′-29] | – | ≤ 0.5 µM | > 10 µM | > 10 µM |
